Here are results for one molecule from paper PMC9866218, “Characterization and Chemical Synthesis of Cm39 (α-KTx 4.8): A Scorpion Toxin That Inhibits Voltage-Gated K^+ Channel KV1.2 and Small- and Intermediate-Conductance Ca^2+-Activated K^+ Channels KCa2.2 and KCa3.1” (Toxins, 2023).

SMILES strings stand for the structures. Entries after “also recorded” stand apart in the source; their conditions may differ.

In series [1] the test system is hKV11.1. Description: Whole-cell patch-clamp, block of KV11.1 (hERG1) current. Format: cell-based, human. Conditions: HEK 293 cells. The text has this:
We, therefore, aimed at testing the pharmacological activity of sCm39 on a battery of various potassium and sodium ion channels. Among the tested channels were six members of human voltage-gated K^+ (hKV) channels from Shaker family, hKV1.1-hKV1.6 (Figure 3A–F) and three members of Ca^2+-activated potassium channel; hKCa2.2 (SK2, Figure 3I), the small-conductance Ca^2+-activated channel; hKCa3.1 (IKCa1, SK4. Figure 3J), the intermediate-conductance Ca^2+-activated channel expressed in T lymphocytes; and mKCa1.1 (BK, Slo1, MaxiK, Figure 3H), the large-conductance voltage- and Ca^2+-activated channel of mice. In addition, we also screened the effect of Cm39 on hKV11.1 (hERG1, Figure 3G), a voltage-gated cardiac K^+ channel, and two human voltage-gated sodium (hNaV) channels, hNaV1.4 (Figure 3K) and hNaV1.5 (Figure 3L), expressed in skeletal and cardiac muscles, respectively. These ion channels were heterologously expressed in the CHO or HEK cell lines except for KV1.3. Human peripheral T lymphocytes. […]
Whole-cell currents were recorded in voltage-clamped cells following standard protocols by using a Multiclamp 700B amplifier connected to a computer with Axon Digidata1440 digitizer and for data acquisition, Clampex 10.7 software was used (Molecular Devices). […]
(In general: Patch clamp records ionic current or voltage across a cell membrane.)

Series [2] concerns the target T1, hKV1.2 (Homo sapiens, UniProt P16389).
T1 construct: GFP (vector pCMV6-AC-GFP); host or cells: CHO cells, transient transfection
Description: Whole-cell patch-clamp, block of KV1.2 current. The series is classed as cell-based. An excerpt:
We, therefore, aimed at testing the pharmacological activity of sCm39 on a battery of various potassium and sodium ion channels. Among the tested channels were six members of human voltage-gated K^+ (hKV) channels from Shaker family, hKV1.1-hKV1.6 (Figure 3A–F) and three members of Ca^2+-activated potassium channel; hKCa2.2 (SK2, Figure 3I), the small-conductance Ca^2+-activated channel; hKCa3.1 (IKCa1, SK4. Figure 3J), the intermediate-conductance Ca^2+-activated channel expressed in T lymphocytes; and mKCa1.1 (BK, Slo1, MaxiK, Figure 3H), the large-conductance voltage- and Ca^2+-activated channel of mice. In addition, we also screened the effect of Cm39 on hKV11.1 (hERG1, Figure 3G), a voltage-gated cardiac K^+ channel, and two human voltage-gated sodium (hNaV) channels, hNaV1.4 (Figure 3K) and hNaV1.5 (Figure 3L), expressed in skeletal and cardiac muscles, respectively. These ion channels were heterologously expressed in the CHO or HEK cell lines except for KV1.3. Human peripheral T lymphocytes. They were stimulated with Phytohemagglutinin A (PHA) to increase the KV1.3 channel expression, and Ca^2+-free intracellular solution was used to avoid KCa3.1 channel activation. Appropriate depolarization protocols were used to record ionic currents in voltage-clamped cells (see Figure 3 insets and Material and Methods for details). Freshly dissolved sCm39 in extracellular solution was applied at 1 µM concentration on the cell using a custom-built micro-perfusion system at ~200 µL/min flow rate.
For comprehensive characterization of Cm39 activity on KV1.2, we determined the concentration–response of current inhibition by Cm39, the kinetic parameters of its binding and assessed the effect on voltage dependence of steady-state activation. The whole-cell KV1.2 currents were recorded in CHO cells using depolarization pulses to +50mV from −120mV holding potential (Vh) every 15 s. Since the activation kinetics of KV1.2 are highly variable, the duration of pulses was set on a cell-by-cell basis between 15–300 ms to allocate sufficient time for reaching maximum currents at the test potentials. […] The remaining current fractions (RCF = I/I0, where I0 is the peak current in the absence of the toxin, and I is the peak current at equilibrium block in the presence of sCm39 at a given concentration) were calculated and plotted as a function of toxin concentration.
Single-exponential decay functions were fitted to the normalized peak currents in the presence of each sCm39 concentration (Figure 4C, data points in red shades) to determine the time constant for the onset of block (τon, wash-in or association time constant). The dissociation time constant for the relief from block (τoff, wash-out time constant) was obtained by fitting a single-exponential rising function to the normalized peak currents in the wash-out procedure (Figure 4C, data point in black empty circles). Assuming a simple bimolecular interaction between the toxin and the channel, time constants for the onset and recovery from the block can be stated as follows:(1) τon=1/kon×[toxin]+koff , τoff=1/koff where kon represents the second-order association rate constant, koff indicates the first-order dissociation rate constant and [toxin] is the sCm39 concentration. […] The second-order rate constant of association (kon) was determined by fitting the 1/τon data points using linear regression with koff as the y-intercept.

T1 sequence (P16389 whole entry): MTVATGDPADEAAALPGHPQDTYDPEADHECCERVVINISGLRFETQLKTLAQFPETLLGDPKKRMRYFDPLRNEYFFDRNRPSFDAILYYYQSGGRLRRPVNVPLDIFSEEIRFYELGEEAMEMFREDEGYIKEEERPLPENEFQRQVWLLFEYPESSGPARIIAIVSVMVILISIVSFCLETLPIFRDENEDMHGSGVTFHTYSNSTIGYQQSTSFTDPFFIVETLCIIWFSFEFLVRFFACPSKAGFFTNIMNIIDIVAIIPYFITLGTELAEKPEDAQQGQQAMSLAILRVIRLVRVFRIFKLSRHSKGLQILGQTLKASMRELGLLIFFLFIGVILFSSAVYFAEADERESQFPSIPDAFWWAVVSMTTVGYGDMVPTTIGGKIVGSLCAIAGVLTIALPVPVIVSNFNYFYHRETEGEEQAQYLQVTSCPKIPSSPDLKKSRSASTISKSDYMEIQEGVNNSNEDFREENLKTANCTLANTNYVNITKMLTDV

Regarding `CC[C@H](C)[C@@H]1NC(=O)[C@H](C)NC(=O)[C@H](C)NC(=O)[C@H](CCCCN)NC(=O)[C@@H]2CSSC[C@@H](C(=O)N[C@@H](Cc3ccc(O)cc3)C(=O)N[C@@H](Cc3ccc(O)cc3)C(=O)O)NC(=O)[C@H](CCCCN)NC(=O)[C@@H]3CSSC[C@H](NC(=O)[C@H](CCC(=O)O)NC(=O)[C@H](CO)NC(=O)[C@H](CO)NC(=O)[C@H](CO)NC(=O)[C@H](CCCCN)NC(=O)[C@@H](NC(=O)[C@H](CCCCN)NC(=O)[C@H](Cc4c[nH]cn4)NC(=O)[C@H](CC(N)=O)NC(=O)[C@@H](NC(=O)[C@H](Cc4ccccc4)NC(=O)[C@@H](N)[C@@H](C)O)[C@@H](C)CC)CSSC[C@H](NC(=O)[C@H](CCCCN)NC(=O)CNC(=O)[C@H](CO)NC(=O)[C@H](C)NC(=O)[C@H](CCCNC(=N)N)NC(=O)CNC1=O)C(=O)N[C@@H]([C@@H](C)CC)C(=O)N[C@@H](CC(N)=O)C(=O)N[C@@H](CO)C(=O)N[C@@H]([C@@H](C)O)C(=O)N3)C(=O)N[C@@H](CC(C)C)C(=O)N1CCC[C@H]1C(=O)N[C@@H](C)C(=O)N2` [Cm39], the “inhibition (in words)” value in series [1] (1 μM) was “does not inhibit; also recorded: did not show any effect”. This molecule displayed a decrease in current in series [1] (1 µM, 3−5 min, n = 3−5) of under 3%. Besides, the inhibition (usually the drop in the measured response relative to a control, in per cent) at 0.005 µM in series [2] (5 nM, CHO cells, pulses to +50 mV, read-out: inhibition of KV1.2 current at equilibrium block) is about 5%. Further, the inhibition at 0.02 µM in series [2] (20 nM, CHO cells, pulses to +50 mV, read-out: inhibition of KV1.2 current at equilibrium block) is about 22%. The inhibition at 0.05 µM in series [2] (50 nM, CHO cells, pulses to +50 mV, read-out: inhibition of KV1.2 current at equilibrium block) is about 43%. The inhibition at 0.1 µM in series [2] (100 nM, CHO cells, pulses to +50 mV, read-out: inhibition of KV1.2 current at equilibrium block) is about 62%. The inhibition at 0.25 µM in series [2] (250 nM, CHO cells, pulses to +50 mV, read-out: inhibition of KV1.2 current at equilibrium block) is about 78%. Besides, the inhibition at 0.5 µM in series [2] (500 nM, CHO cells, pulses to +50 mV, read-out: inhibition of KV1.2 current at equilibrium block) is about 87%. In addition, the “reduction of current at equilibrium block” value in series [2] (1 µM, CHO cells, n = 3−5 (Figure 3M)) was 95%. The “toxin association and dissociation kinetics” value in series [2] (5−500 nM) was “fast”; in series [2] (5−500 nM, listed as sCm39), “very fast”. For the same molecule, the “selectivity for KV1.2 over KV1.3” value in series [2] (KV1.2 over KV1.3) is recorded as over 15 fold. Moreover, the Hill coefficient (usually a measure of the steepness of the concentration-response curve) in series [2] (concentration-response of KV1.2 block, CHO cells) is listed as 0.96. Besides, in series [2] (slope of linear regression of 1/τon vs concentration, r^2 = 0.97, CHO cells, read-out: second-order association rate constant kon), the kon (commonly a measure of how fast the partners come together) stood at 215000 M⁻¹ s⁻¹. Moreover, the “reversibility of KV1.2 block” value in series [2] (wash-out with toxin-free solution, 5−500 nM) was “fully reversible”. Further, the koff in series [2] (wash-out, single-exponential fit, CHO cells, simple bimolecular interaction assumed, read-out: dissociation rate constant koff (1/τoff)) was 0.019 ± 0.0013 s⁻¹.
